Measurements reported in patent publication US12594254B2, “Intranasal administration of n-acetylcysteine and uses thereof” (Neuronasal, Inc., priority 2022, dated 2026).

Key:
Format in all cases: in vivo, human
[1] = Blood PK of total NAC and GSH after a single dose of IN NAC in healthy participants
Procedure: (§1) Various assays were designed and tested assess the feasibility of IN NAC administration for direct nose-to-brain delivery as shown and described for FIGS. 1-4. Assays include studies in healthy participants using ^1H-MRS assessment of change from baseline in NAC-derived metabolic markers in three brain regions (occipital cortex, striatum, and DLPF), following a single dose of 196 mg to 200 mg IN NAC at 1, 3, and 6 hours.
Concentrations of the targeted metabolites were reported for various time points to assess total NAC and GSH concentrations. Mean (±standard error [SE]) of blood PK data were plotted on linear and semi logarithmic scales (FIGS. 1-2).

[2] = system: regional brain GSH/creatine ratio; experiment: 1H-MRS change from baseline of regional brain GSH/Creatine ratio after single dose IN NAC
Procedure: as §1
(§2) Magnetic resonance (MR) spectra of NAC-derived brain metabolites in three brain regions (occipital cortex, striatum, and DLPF) at baseline and 1, 3, and 6 hours following IN NAC were assessed. Percentage change from Baseline of GSH/Creatine and N-Acetylaspartate (NAA)/Creatine in the three regions by treatment group were plotted (FIGS. 3-4).

NAA/creatine ratio = experiment: 1H-MRS change from baseline of regional brain NAA/Creatine ratio after single dose IN NAC; details: for increase of NAA/creatine ratio post-dose: dorsolateral prefrontal cortex
Procedure: as §1, §2

Which “mean percentage change from Baseline in NAC (blood)” value (shortened to “mean percentage change”) ([1]; 196 mg IN NAC, APTAR 5 mL CPS Syringe, 1 hour post-dose) does the source give for `CC(=O)N[C@@H](CS)C(=O)O` [NAC, N-acetylcysteine] here?
The value was 2881.66%.

And the “mean percentage change” value ([1]; 196 mg IN NAC, APTAR 5 mL CPS Syringe, 3 hours post-dose)?
The value was 1158.20%.

What about the “mean percentage change” value ([1]; 196 mg IN NAC, APTAR 5 mL CPS Syringe, 6 hours post-dose) of the same compound?
The value was 419.35%.

What about the “mean percentage change” value ([1]; 200 mg IN NAC, Teleflex MAD device, 1 hour post-dose) of the same compound?
Its value is 2379.60%.

What about the “mean percentage change” value ([1]; 200 mg IN NAC, Teleflex MAD device, 3 hours post-dose) of the same compound?
Its value is 1117.01%.

What about the “mean percentage change” value ([1]; 200 mg IN NAC, Teleflex MAD device, 6 hours post-dose) of the same compound?
The value was 438.17%.

And the “effect on regional brain GSH (overall)” value ([2]; 196 mg IN NAC, APTAR 5 mL CPS Syringe, 1, 3 and 6 hour post-dose timepoints)?
Its value is “failed to produce consistent elevation”.

What about the “effect on regional brain GSH (overall)” value ([2]; 200 mg IN NAC, Teleflex MAD device, 5 participants with analyzable MRS data) of the same compound?
Its value is “time- and region-dependent increase”.

What about the “increase of regional brain GSH/creatine ratio relative to pre-dose baseline” value ([2]; dorsolateral prefrontal cortex (n=5), 200 mg IN NAC, Teleflex MAD device, 1 hour post-dose) of the same compound?
Its value is about 17%.

And the “increase of regional brain GSH/creatine ratio relative to pre-dose baseline” value ([2]; dorsolateral prefrontal cortex (n=5), 200 mg IN NAC, Teleflex MAD device, 3 hours post-dose)?
Its value is about 42%.

And the “increase of regional brain GSH/creatine ratio relative to pre-dose baseline” value ([2]; dorsolateral prefrontal cortex (n=5), 200 mg IN NAC, Teleflex MAD device, 6 hours post-dose)?
The value was about 34%.

And the “increase of regional brain GSH/creatine ratio relative to pre-dose baseline” value ([2]; dorsolateral prefrontal cortex, 196 mg IN NAC, APTAR 5 mL CPS Syringe (n=3), 1 hour)?
Its value is 18%.

And the “decrease of regional brain GSH/creatine ratio relative to pre-dose baseline” value ([2]; dorsolateral prefrontal cortex, 196 mg IN NAC, APTAR 5 mL CPS Syringe (n=3), 3 hours)?
The value was 71%.

And the “increase of regional brain GSH/creatine ratio relative to pre-dose baseline” value ([2]; dorsolateral prefrontal cortex, 196 mg IN NAC, APTAR 5 mL CPS Syringe (n=3), 6 hours)?
Its value is 4%.

What about the “increase of regional brain GSH/creatine ratio relative to pre-dose baseline” value ([2]; occipital cortex (n=5), 200 mg IN NAC, Teleflex MAD device, 1 hour post-dose) of the same compound?
Its value is about 25%.

And the “increase of regional brain GSH/creatine ratio relative to pre-dose baseline” value ([2]; occipital cortex (n=5), 200 mg IN NAC, Teleflex MAD device, 3 hours post-dose)?
The value was about 49%.

What about the “increase of regional brain GSH/creatine ratio relative to pre-dose baseline” value ([2]; occipital cortex (n=5), 200 mg IN NAC, Teleflex MAD device, 6 hours post-dose) of the same compound?
Its value is about 21%.

And the “decrease of regional brain GSH/creatine ratio relative to pre-dose baseline” value ([2]; occipital cortex, 196 mg IN NAC, APTAR 5 mL CPS Syringe (n=3), 1 hour)?
The value was 17%.

What about the “increase of regional brain GSH/creatine ratio relative to pre-dose baseline” value ([2]; occipital cortex, 196 mg IN NAC, APTAR 5 mL CPS Syringe (n=3), 3 hours) of the same compound?
Its value is 2%.

And the “increase of regional brain GSH/creatine ratio relative to pre-dose baseline” value ([2]; occipital cortex, 196 mg IN NAC, APTAR 5 mL CPS Syringe (n=3), 6 hours)?
The value was 1%.

And the “increase of regional brain GSH/creatine ratio relative to pre-dose baseline” value ([2]; striatum (n=4), 200 mg IN NAC, Teleflex MAD device, 1 hour post-dose)?
Its value is “approximately 36%”.

And the “increase of regional brain GSH/creatine ratio relative to pre-dose baseline” value ([2]; striatum (n=4), 200 mg IN NAC, Teleflex MAD device, 3 hours post-dose)?
Its value is about 20%.

And the “increase of regional brain GSH/creatine ratio relative to pre-dose baseline” value ([2]; striatum (n=4), 200 mg IN NAC, Teleflex MAD device, 6 hours post-dose)?
Its value is about 14%.

And the “increase of regional brain GSH/creatine ratio relative to pre-dose baseline” value ([2]; striatum, 196 mg IN NAC, APTAR 5 mL CPS Syringe (n=3), 1 hour)?
Its value is 2%.

And the “decrease of regional brain GSH/creatine ratio relative to pre-dose baseline” value ([2]; striatum, 196 mg IN NAC, APTAR 5 mL CPS Syringe (n=3), 3 hours)?
Its value is 11%.

And the “change of regional brain GSH/creatine ratio relative to pre-dose baseline” value ([2]; striatum, 196 mg IN NAC, APTAR 5 mL CPS Syringe (n=3), 6 hours)?
The value was “extreme variability”.

What about the “increase of NAA/creatine ratio post-dose” value (NAA/creatine ratio; 196 mg dose group, second of two values, time point unclear (1, 3 and 6 hours named)) of the same compound?
The value was 9.0%.

And the “increase of NAA/creatine ratio post-dose” value (NAA/creatine ratio; 196 mg dose group, time point unclear (1, 3 and 6 hours named))?
The value was 7.9%.

And the “increase of NAA/creatine ratio post-dose” value (NAA/creatine ratio; 200 mg dose group, 1 hour post-dose)?
The value was 4.5%.

What about the “increase of NAA/creatine ratio post-dose” value (NAA/creatine ratio; 200 mg dose group, 3 hours post-dose) of the same compound?
The value was 6.0%.

And the “increase of NAA/creatine ratio post-dose” value (NAA/creatine ratio; 200 mg dose group, 6 hours post-dose)?
The value was 3.8%.

And the “post-dose changes in the NAA/creatine ratio relative to baseline” value (NAA/creatine ratio; striatum and occipital cortex, both dose groups (200 mg and 196 mg), described as minimal)?
Its value is at most 2.5%.

And the “post-dose changes in the NAA/creatine ratio” value (NAA/creatine ratio; striatum, 6 hours, 196 mg cohort)?
The value was “highly variable changes”.
